This note sets out measurements from publication doi:10.1101/2024.12.03.626679, “Structure of the SMYD2-PARP1 Complex Reveals Both Productive and Allosteric Modes of Peptide Binding” (bioRxiv, 2024).

For orientation: IC50 means the concentration at which inhibition is half-maximal.

One experiment concerns PARP1(518–1014). The experiment in a line: Methyltransferase activity of SMYD2 proteins on PARP1(518–1014), MTase-Glo assay. It is filed as biochemical, human. The note with it: versus wild-type SMYD2. The protocol:
Steady-state enzyme kinetics was carried out using the MTase-Glo methyltransferase assay according to the manufacturer’s instructions (Promega). […] After incubating the reactions with the MTase-Glo reagent and MTase-Glo Detection Solution, the amount of produced AdoHcy was determined by measuring luminescent signals using a microplate reader. The reactions were quantified using an AdoHcy standard curve that correlates the luminescence intensity to the AdoHcy concentration. Enzyme kinetic constants (KM, kcat, and Hill coefficient) were determined using initial velocity measurements at varying substrate concentrations by fitting them to a standard Michaelis-Menten kinetics model and the Hill equation.

The test system of the next experiment is histone H3. Description: Antibody-based methyltransferase assay on H3. In kind it is biochemical. The note with it: versus wild-type SMYD2; 30°C overnight, Western blot. As for the experimental part:
(§1) An antibody-based methyltransferase assay was carried out similarly to a previously described method ([29]). Reactions were performed by incubating SMYD2 proteins with H3 or H4 in the presence of AdoMet at 30°C overnight in a reaction buffer containing 50 mM Tris pH 8.5, 25 mM NaCl, 5% glycerol, and 2 mM DTT. Lysine methylation was detected by Western blot analysis using antibodies against mono-, di-, and trimethylated lysine (ab23366 & ab76118, Abcam). Enzymatic activities were quantified based on chemiluminescence using a CCD gel imager.

Another experiment concerns histone H4. The experiment in a line: Antibody-based methyltransferase assay on H4. The note with it: versus wild-type SMYD2; 30°C overnight, Western blot. It is filed as biochemical. As for the experimental part:
as §1
(In general: A western blot detects proteins with antibodies after separation by electrophoresis.)

Experiment [1] deals with T1, SMYD2-F184A / PARP1(518–1014) interaction (Homo sapiens, UniProt Q9NRG4, F184A).
T1 construct: Full-length human SMYD2 (residues 1–433) (SMYD2-WT); 6xHis-SUMO (N, cleaved yes); made in house
The experiment in a line: ELISA inhibition of SMYD2-PARP1(518–1014) interaction by PARP1 peptide, F184A mutant. Particulars: SMYD2 pre-incubated with peptide, four-parameter logistic fit, triplicate, read-out: IC50 of inhibition of F184A mutant binding to coated PARP1 protein. As for the experimental part:
ELISA solid-phase protein binding experiments were performed according to the previously described protocol ([22]). ELISA plates were prepared by coating PARP1, H3, or H4 onto the wells in a coating buffer containing 10 mM HEPES pH 7.5, 0.1 M KCl, and 3 mM MgCl2. After blocking the plates with 1% BSA, binding experiments were performed by adding different concentrations of SMYD2 proteins into the wells. For PARP1 peptide inhibition experiments, SMYD2 proteins were pre-incubated with the PARP1 peptide before being added to the wells. Bound SMYD2 proteins were probed with the anti-SMYD2 antibody (ab108217, Abcam), and the amount of binding was quantified using an HRP-conjugated secondary antibody (ab6721, Abcam) that generated a color signal from oxidizing the substrate 2,2′-azino-bis(3-ethylbenzthiazoline sulfonic acid). The absorbance of signals was measured at 420 nm using a microplate reader at 2-minute intervals for 15 minutes. The rate of change in absorbance obtained by linear regression was used to quantify the binding. IC50 and the concentration required for 50% saturation were obtained by fitting binding data using a four-parameter logistic regression model. For reciprocal binding experiments, SMYD2 proteins were coated onto the wells and bound PARP1 was detected by the anti-PARP1 antibody (ab191217, Abcam). All binding experiments were performed in triplicate.
Background: An ELISA detects its analyte on a solid surface through an enzyme-linked reagent.

No end group written: not given here.

T1 sequence (Q9NRG4 whole entry F184A, the tested form may be a part): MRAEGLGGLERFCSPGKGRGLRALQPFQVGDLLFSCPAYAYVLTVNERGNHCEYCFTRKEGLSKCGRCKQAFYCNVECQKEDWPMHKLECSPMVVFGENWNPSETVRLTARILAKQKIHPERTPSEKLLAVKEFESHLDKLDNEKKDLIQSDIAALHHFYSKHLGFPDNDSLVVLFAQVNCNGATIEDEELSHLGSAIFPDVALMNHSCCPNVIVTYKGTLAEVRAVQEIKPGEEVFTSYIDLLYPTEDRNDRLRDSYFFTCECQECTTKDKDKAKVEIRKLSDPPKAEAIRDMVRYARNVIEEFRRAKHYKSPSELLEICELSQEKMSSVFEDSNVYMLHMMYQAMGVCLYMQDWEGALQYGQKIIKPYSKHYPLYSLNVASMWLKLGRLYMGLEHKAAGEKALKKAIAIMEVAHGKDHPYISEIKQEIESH

As to “F184A mutant: SMYD2 mutant targeting the target lysine access channel at the active site”, in the experiment with PARP1(518–1014), the “methylation level of PARP1 protein” value was “abolishes the methyltransferase activity”. For the same substance, in the experiment on histone H3, the “methylation of H3” value is listed as “abolishes the methyltransferase activity”. In addition, the “methylation of H4” value with histone H4 was “abolishes the methyltransferase activity”.

As to RMKLTLKGGAAVD [PARP1 peptide], the half-maximal inhibitory concentration (IC50) in experiment [1] is roughly 153 nM.

As for “L351A/W356A mutant: SMYD2 secondary-binding-site mutant targeting both subsites M and L”, the “methylation level of PARP1 protein” value with PARP1(518–1014) is on record as “notable increase”. In addition, the “methylation of H3” value in the experiment on histone H3 was “marked increase”. Moreover, in the experiment with histone H4, the “methylation of H4” value was “marked increase”.
